From ChEMBL document CHEMBL5370540, “Discovery of pyrimidine-5-carboxamide derivatives as novel salt-inducible kinases (SIKs) inhibitors for inflammatory bowel disease (IBD) treatment” (Eur J Med Chem, 2023)
Active and inactive are the calls of the source. The calls are words filed in the database; no cut-off is given here.

What was measured:
[1] = target: Serine/threonine-protein kinase SIK1 (Homo sapiens, UniProt P57059); assay: Inhibition of SIK1 (unknown origin)
[2] = target: Serine/threonine-protein kinase SIK2 (Homo sapiens, UniProt Q9H0K1); assay: Inhibition of SIK2 (unknown origin)
[3] = target: Serine/threonine-protein kinase SIK3 (Homo sapiens, UniProt Q9Y2K2); assay: Inhibition of SIK3 (unknown origin)
[4] = Metabolic stability in human liver microsomes assessed as half life; type: ADME, Microsome
[5] = target: Tyrosine-protein kinase ABL1 (Homo sapiens) (UniProt P00519); assay: Inhibition of Abl (unknown origin) at 1 uM
[6] = target: Tyrosine-protein kinase FRK (Homo sapiens) (UniProt P42685); assay: Inhibition of PTK5 (unknown origin) at 1 uM
[7] = target: Activated CDC42 kinase 1 (Homo sapiens) (UniProt Q07912); assay: Inhibition of ACK1 (unknown origin) at 1 uM
[8] = target: Proto-oncogene tyrosine-protein kinase Src (Homo sapiens) (UniProt P12931); assay: Inhibition of cSRC (unknown origin) at 1 uM
[9] = target: Proto-oncogene tyrosine-protein kinase Src (Homo sapiens) (UniProt P12931); assay: Inhibition of SRC (1 to 530 residues)(unknown origin) at 1 uM
[10] = target: Tyrosine-protein kinase Yes (Homo sapiens) (UniProt P07947); assay: Inhibition of Yes (unknown origin) at 1 uM
[11] = target: Tyrosine-protein kinase HCK (Homo sapiens) (UniProt P08631); assay: Inhibition of HcK (unknown origin) at 1 uM
[12] = target: Tyrosine-protein kinase Blk (Homo sapiens) (UniProt P51451); assay: Inhibition of BlK (unknown origin) at 1 uM
[13] = target: Tyrosine-protein kinase BTK (Homo sapiens) (UniProt Q06187); assay: Inhibition of BTK (unknown origin) at 1 uM
[14] = target: Tyrosine-protein kinase Tec (Homo sapiens) (UniProt P42680); assay: Inhibition of Tec (unknown origin) at 1 uM
[15] = Half life in Sprague-Dawley rat at 5 mg/kg, iv measured upto 24 hrs by LC/MS/MS analysis; type: ADME, organism-based; conditions: in vivo
[16] = Clearance in Sprague-Dawley rat at 5 mg/kg, iv measured upto 24 hrs by LC/MS/MS analysis; type: ADME, organism-based; conditions: in vivo
[17] = Cmax in Sprague-Dawley rat at 5 mg/kg, iv measured upto 24 hrs by LC/MS/MS analysis; type: ADME, organism-based; parameters: dose 5 mg/kg, time < 24 hrs, route iv; conditions: in vivo
[18] = AUC (0 to t) in Sprague-Dawley rat at 10 mg/kg, po measured upto 24 hrs by LC/MS/MS analysis; type: ADME, organism-based; parameters: dose 10 mg/kg, time < 24 hrs, route po; conditions: in vivo
[19] = Half life in Sprague-Dawley rat at 10 mg/kg, po measured upto 24 hrs by LC/MS/MS analysis; type: ADME, organism-based; conditions: in vivo
[20] = Cmax in Sprague-Dawley rat at 10 mg/kg, po measured upto 24 hrs by LC/MS/MS analysis; type: ADME, organism-based; parameters: dose 10 mg/kg, time < 24 hrs, route po; conditions: in vivo
[21] = Oral bioavailability in Sprague-Dawley rat at 10 mg/kg measured upto 24 hrs by LC/MS/MS analysis; type: ADME, organism-based; conditions: in vivo
[22] = Protein binding in human plasma at 10 uM measured for 8 hrs by dialysis method; type: ADME, cell-free; conditions: read-out: PPB (converted)
[23] = test system: BMDM; assay: Cytotoxicity against C57BL/6J mouse BMDM cells assessed as cell viability upto 500 nM preincubated for 1 hr followed by LPS stimulation measured after 2 to 4 hrs by CCK8 assay; type: toxicity, cell-based; conditions: 0.5 µM, time 3-5 hrs
[24] = test system: BMDM; assay: Anti-inflammatory activity against C57BL/6J mouse BMDM cells assessed as increase in IL-10 level at 500 nM preincubated for 1 hr followed by LPS stimulation measured after 2 to 8 hrs by ELISA method; type: functional, cell-based; conditions: time 3-9 hrs
[25] = test system: BMDM; assay: Anti-inflammatory activity against C57BL/6J mouse BMDM cells assessed as decrease in IL-12 level at 500 nM preincubated for 1 hr followed by LPS stimulation measured after 4 to 8 hrs by ELISA method; type: functional, cell-based; conditions: time 5-9 hrs
[26] = test system: BMDM; assay: Anti-inflammatory activity against C57BL/6J mouse BMDM cells assessed as decrease in IL-12 level at 500 nM preincubated for 1 hr followed by LPS stimulation measured after 8 hrs by ELISA method; type: functional, cell-based; conditions: time 9.0 hrs
[27] = test system: BMDM; assay: Anti-inflammatory activity against C57BL/6J mouse BMDM cells assessed as decrease in IL-12 level upto 500 nM preincubated for 1 hr followed by LPS stimulation measured after 8 hrs by ELISA method; type: functional, cell-based; conditions: time 9.0 hrs
[28] = target: Serine/threonine-protein kinase SIK2 (Mus musculus) (UniProt Q8CFH6); assay: Inhibition of SIK2 in C57BL/6J mouse BMDM cells assessed as increase in IL-10 mRNA level at 500 nM preincubated for 1 hr followed by LPS stimulation measured for 1 hr by qPCR analysis; type: cell-based; conditions: time 2.0 hrs
[29] = target: Serine/threonine-protein kinase SIK2 (Mus musculus) (UniProt Q8CFH6); assay: Inhibition of SIK2 in C57BL/6J mouse BMDM cells assessed as increase in IL-10 mRNA level at 500 nM preincubated for 1 hr followed by LPS stimulation measured for 2 to 4 hrs by qPCR analysis; type: cell-based; conditions: time 3-5 hrs
[30] = target: Serine/threonine-protein kinase SIK2 (Mus musculus) (UniProt Q8CFH6); assay: Inhibition of SIK2 in C57BL/6J mouse BMDM cells assessed as increase in c-FOS mRNA level at 500 nM preincubated for 1 hr followed by LPS stimulation measured for 2 to 4 hrs by qPCR analysis; type: cell-based; conditions: time 3-5 hrs
[31] = target: Serine/threonine-protein kinase SIK2 (Mus musculus) (UniProt Q8CFH6); assay: Inhibition of SIK2 in C57BL/6J mouse BMDM cells assessed as increase in IL-12 mRNA level at 500 nM preincubated for 1 hr followed by LPS stimulation measured for 1 hr by qPCR analysis; type: cell-based; conditions: time 2.0 hrs
[32] = target: Serine/threonine-protein kinase SIK2 (Mus musculus) (UniProt Q8CFH6); assay: Inhibition of SIK2 in C57BL/6J mouse BMDM cells assessed as increase in SPHK1 mRNA level at 500 nM preincubated for 1 hr followed by LPS stimulation measured upto 8 hrs by qPCR analysis; type: cell-based; conditions: time <= 9.0 hrs
[33] = target: Serine/threonine-protein kinase SIK2 (Mus musculus) (UniProt Q8CFH6); assay: Inhibition of SIK2 in C57BL/6J mouse BMDM cells assessed as increase in arginase 1 mRNA level at 500 nM preincubated for 1 hr followed by LPS stimulation measured upto 8 hrs by qPCR analysis; type: cell-based; conditions: time <= 9.0 hrs
[34] = test system: Mus musculus; assay: Antiinflammatory activity in DSS-induced colitis C57BL/6J mouse model assessed as decrease in disease activity index at 7.5 to 30 mg/kg, ip; type: functional, organism-based; conditions: dose 7.5-30 mg/kg
[35] = Toxicity in DSS-induced colitis C57BL/6J mouse model at 30 mg/kg, ip; type: organism-based; conditions: in vivo
[36] = test system: Mus musculus; assay: Antiinflammatory activity in DSS-induced colitis C57BL/6J mouse model assessed as decrease in thickening of inherent base layer at 7.5 to 15 mg/kg, ip measured after 12 days by H&E staining based analysis; type: functional, organism-based; conditions: dose 7.5-15 mg/kg, time 12.0 day
[37] = test system: Mus musculus; assay: Antiinflammatory activity in DSS-induced colitis C57BL/6J mouse model assessed as decrease in thickening of inherent base layer at 50 to 100 mg/kg, po measured after 12 days by H&E staining based analysis; type: functional, organism-based; conditions: dose 50-100 mg/kg, time 12.0 day

Sequence of Serine/threonine-protein kinase SIK2 (Mus musculus) (Q8CFH6 whole entry): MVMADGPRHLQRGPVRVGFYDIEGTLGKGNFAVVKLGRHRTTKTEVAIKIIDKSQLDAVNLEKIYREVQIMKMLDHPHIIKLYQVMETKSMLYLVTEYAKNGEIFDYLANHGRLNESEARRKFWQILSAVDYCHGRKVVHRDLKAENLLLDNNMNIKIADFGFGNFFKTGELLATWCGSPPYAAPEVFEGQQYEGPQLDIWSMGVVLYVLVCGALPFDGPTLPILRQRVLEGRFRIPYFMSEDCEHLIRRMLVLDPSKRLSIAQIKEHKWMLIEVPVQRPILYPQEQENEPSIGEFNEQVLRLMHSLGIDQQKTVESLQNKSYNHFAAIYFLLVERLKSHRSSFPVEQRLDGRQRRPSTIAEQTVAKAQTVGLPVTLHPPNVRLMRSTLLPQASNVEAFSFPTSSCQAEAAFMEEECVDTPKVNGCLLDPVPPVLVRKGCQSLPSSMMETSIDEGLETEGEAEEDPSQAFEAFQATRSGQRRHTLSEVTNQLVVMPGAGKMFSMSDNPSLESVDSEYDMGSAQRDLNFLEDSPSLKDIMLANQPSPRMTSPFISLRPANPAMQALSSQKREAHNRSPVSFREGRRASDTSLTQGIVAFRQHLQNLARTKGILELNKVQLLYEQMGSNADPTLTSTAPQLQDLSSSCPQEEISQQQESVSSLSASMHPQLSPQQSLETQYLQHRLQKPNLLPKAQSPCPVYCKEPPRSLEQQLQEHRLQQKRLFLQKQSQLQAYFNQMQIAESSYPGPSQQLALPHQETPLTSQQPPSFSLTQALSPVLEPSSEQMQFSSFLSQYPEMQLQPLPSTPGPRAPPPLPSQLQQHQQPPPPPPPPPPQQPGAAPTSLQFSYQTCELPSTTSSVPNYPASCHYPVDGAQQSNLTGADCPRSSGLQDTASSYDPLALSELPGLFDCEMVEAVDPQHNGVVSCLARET
Sequence of Proto-oncogene tyrosine-protein kinase Src (Homo sapiens) (P12931 2-536 limits assumed): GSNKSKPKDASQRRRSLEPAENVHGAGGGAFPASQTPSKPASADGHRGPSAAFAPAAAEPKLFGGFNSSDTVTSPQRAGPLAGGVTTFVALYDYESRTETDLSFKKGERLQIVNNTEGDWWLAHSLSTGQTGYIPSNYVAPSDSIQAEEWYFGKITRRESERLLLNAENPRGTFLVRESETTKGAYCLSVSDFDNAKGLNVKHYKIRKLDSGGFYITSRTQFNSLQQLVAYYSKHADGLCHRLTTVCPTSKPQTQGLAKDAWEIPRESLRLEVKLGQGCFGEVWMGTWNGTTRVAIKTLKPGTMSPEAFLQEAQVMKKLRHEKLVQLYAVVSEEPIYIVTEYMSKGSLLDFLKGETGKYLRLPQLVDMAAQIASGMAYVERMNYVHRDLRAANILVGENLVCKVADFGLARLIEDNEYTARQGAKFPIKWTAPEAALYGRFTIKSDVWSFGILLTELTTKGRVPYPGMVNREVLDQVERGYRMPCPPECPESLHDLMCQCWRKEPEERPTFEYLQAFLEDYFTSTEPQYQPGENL
Sequence of Tyrosine-protein kinase Tec (Homo sapiens) (P42680 whole entry): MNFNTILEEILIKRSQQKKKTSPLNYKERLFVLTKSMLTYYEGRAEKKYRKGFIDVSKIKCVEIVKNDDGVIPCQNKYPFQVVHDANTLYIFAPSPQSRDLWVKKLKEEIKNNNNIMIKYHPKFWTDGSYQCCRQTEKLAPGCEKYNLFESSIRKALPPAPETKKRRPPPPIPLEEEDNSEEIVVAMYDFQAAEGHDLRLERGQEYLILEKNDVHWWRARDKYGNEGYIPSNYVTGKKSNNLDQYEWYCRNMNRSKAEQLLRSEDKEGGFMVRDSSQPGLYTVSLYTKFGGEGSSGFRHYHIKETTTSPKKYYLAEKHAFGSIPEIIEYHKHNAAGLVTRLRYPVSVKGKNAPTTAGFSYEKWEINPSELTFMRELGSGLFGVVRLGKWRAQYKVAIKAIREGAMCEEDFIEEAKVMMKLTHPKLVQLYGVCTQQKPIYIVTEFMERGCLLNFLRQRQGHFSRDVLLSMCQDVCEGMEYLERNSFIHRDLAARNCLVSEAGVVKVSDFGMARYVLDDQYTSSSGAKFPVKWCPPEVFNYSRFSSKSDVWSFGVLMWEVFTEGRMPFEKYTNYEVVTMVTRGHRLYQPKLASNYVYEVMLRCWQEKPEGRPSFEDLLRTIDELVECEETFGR
Sequence of Tyrosine-protein kinase Yes (Homo sapiens) (P07947 2-543 limits assumed): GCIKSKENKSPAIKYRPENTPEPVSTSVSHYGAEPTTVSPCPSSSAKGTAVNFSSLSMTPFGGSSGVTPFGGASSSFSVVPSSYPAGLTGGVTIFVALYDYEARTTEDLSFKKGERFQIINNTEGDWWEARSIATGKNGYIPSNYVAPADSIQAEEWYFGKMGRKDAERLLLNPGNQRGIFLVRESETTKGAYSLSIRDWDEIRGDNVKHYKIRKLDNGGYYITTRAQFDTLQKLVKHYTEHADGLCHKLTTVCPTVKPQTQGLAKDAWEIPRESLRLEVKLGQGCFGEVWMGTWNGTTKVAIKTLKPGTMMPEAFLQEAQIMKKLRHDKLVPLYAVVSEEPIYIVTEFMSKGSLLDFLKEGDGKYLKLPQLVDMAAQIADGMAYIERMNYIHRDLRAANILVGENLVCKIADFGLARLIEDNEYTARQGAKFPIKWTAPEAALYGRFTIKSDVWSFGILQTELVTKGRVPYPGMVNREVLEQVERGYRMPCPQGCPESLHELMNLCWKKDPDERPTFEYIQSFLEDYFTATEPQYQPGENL
Sequence of Serine/threonine-protein kinase SIK2 (Q9H0K1 whole entry): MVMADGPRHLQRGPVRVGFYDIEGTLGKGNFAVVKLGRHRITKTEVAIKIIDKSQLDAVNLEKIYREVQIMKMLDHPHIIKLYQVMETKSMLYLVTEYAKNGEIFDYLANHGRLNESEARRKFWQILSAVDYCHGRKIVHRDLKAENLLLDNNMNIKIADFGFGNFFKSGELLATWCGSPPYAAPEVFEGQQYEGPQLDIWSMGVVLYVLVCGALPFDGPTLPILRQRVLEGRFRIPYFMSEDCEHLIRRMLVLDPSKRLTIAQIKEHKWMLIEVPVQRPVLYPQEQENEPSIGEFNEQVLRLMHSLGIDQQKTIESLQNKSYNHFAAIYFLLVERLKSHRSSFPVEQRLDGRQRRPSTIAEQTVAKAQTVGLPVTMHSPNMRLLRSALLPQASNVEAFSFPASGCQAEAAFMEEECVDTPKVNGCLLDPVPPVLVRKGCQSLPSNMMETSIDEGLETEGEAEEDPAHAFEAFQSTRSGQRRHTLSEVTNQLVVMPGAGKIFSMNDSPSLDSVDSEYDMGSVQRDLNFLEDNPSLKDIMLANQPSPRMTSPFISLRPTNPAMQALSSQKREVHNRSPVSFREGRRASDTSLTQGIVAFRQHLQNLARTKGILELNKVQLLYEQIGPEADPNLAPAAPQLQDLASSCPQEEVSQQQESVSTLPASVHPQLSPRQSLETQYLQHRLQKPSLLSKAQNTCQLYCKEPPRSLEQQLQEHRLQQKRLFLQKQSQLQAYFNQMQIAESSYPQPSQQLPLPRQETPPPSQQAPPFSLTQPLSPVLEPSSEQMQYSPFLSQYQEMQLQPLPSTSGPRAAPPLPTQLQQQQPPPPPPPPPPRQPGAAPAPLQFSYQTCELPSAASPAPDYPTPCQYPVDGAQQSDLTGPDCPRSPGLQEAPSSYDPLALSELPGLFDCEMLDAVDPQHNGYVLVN
Sequence of Serine/threonine-protein kinase SIK3 (Q9Y2K2 whole entry): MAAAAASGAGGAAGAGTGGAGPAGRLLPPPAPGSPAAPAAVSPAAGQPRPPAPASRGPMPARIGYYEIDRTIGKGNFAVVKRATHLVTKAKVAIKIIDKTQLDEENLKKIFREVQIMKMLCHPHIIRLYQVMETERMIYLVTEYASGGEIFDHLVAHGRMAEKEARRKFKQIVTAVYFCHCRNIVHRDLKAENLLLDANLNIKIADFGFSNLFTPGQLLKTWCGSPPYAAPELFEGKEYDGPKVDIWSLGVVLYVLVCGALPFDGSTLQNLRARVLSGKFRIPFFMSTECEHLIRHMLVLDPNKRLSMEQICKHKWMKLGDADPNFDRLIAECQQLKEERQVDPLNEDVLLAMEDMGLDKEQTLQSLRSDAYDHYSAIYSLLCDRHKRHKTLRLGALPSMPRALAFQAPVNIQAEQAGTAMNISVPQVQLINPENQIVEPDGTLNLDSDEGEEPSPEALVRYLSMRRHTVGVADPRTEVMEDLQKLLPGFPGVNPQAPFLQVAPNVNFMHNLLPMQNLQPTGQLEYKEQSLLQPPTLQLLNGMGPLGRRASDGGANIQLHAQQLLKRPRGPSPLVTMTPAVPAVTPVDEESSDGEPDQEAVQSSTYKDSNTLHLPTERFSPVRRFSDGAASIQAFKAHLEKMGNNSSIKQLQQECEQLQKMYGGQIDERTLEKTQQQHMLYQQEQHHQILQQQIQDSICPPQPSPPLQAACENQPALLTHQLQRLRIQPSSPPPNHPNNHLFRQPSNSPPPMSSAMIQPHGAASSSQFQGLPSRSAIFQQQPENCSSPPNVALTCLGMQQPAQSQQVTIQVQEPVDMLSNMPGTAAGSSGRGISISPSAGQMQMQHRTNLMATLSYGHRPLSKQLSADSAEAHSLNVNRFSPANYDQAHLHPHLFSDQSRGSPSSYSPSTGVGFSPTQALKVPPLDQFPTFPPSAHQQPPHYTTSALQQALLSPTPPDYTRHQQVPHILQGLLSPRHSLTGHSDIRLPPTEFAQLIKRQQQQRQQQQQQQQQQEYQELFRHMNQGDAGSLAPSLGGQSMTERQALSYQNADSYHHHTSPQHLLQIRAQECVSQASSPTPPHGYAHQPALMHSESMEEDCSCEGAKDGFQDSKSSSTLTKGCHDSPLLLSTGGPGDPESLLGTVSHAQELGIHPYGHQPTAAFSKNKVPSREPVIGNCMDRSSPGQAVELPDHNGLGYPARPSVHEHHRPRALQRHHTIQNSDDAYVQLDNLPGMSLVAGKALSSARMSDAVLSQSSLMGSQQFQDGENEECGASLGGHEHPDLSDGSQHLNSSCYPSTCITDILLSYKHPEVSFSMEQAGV

With Cc1cccc(F)c1NC(=O)c1cnc(Nc2ccc(N3CCN(C)CC3)c(F)c2)nc1NC1CCC1 as the compound, how does the IC50 [1] read?
The IC50 was 24 nM.

And the IC50 [2]?
The IC50 was 8 nM.

What about the IC50 [3] of the same compound?
Its IC50 is 146 nM.

And the half-life [4]?
Its half-life is greater than 2 h.

What about the inhibition [5] of the same compound?
Its inhibition is “Active”.

And the inhibition [6]?
The inhibition was “Active”.

What about the inhibition [7] of the same compound?
Its inhibition is “Active”.

What about the inhibition [8] of the same compound?
Its inhibition is “Active”.

What about the inhibition [9] of the same compound?
The inhibition was “Active”.

And the inhibition [10]?
Its inhibition is “Active”.

And the inhibition [11]?
Its inhibition is “Active”.

What about the inhibition [12] of the same compound?
The inhibition was “Active”.

What about the inhibition [13] of the same compound?
Its inhibition is “Active”.

What about the inhibition [14] of the same compound?
Its inhibition is “Active”.

What about the half-life [15] of the same compound?
Its half-life is 11.5 h.

And the clearance [16]?
Its clearance is 3.33 mL/min/kg.

What about the Cmax [17] of the same compound?
Its Cmax is 12000 ng/mL.

And the AUC(0-t) at 24 h [18]?
Its AUC(0-t) at 24 h is 9340 ng·h/mL.

And the half-life [19]?
The half-life was 17.1 h.

What about the Cmax [20] of the same compound?
The Cmax was 572 ng/mL.

And the bioavailability [21]?
Its bioavailability is 23%.

And the fraction unbound at 8 h, 10 µM [22]?
Its fraction unbound at 8 h, 10 µM is 0.206.

And the Activity [23]?
The Activity was “Non-Toxic”.

And the Activity [24]?
Its Activity is “Active”.

And the Activity [25]?
The Activity was “inactive”.

What about the Activity [26] of the same compound?
Its Activity is “Active”.

And the Activity [27]?
The Activity was “Active”.

What about the inhibition [28] of the same compound?
The inhibition was “Active”.

What about the inhibition [29] of the same compound?
Its inhibition is “inactive”.

And the inhibition [30]?
The inhibition was “inactive”.

What about the inhibition [31] of the same compound?
The inhibition was “Active”.

What about the inhibition [32] of the same compound?
The inhibition was “Active”.

And the inhibition [33]?
The inhibition was “Active”.

And the Activity [34]?
The Activity was “Active”.

And the Activity [35]?
The Activity was “Toxic”.

And the Activity [36]?
Its Activity is “Active”.

And the Activity [37]?
The Activity was “Active”.
